Laboratory results published in patent US20240115682A1, “METHODS OF TREATING CANCER USING HETEROARYL-BIPHENYL AMIDE DERIVATIVES” (CHEMOCENTRYX, INC., priority 2020, published 2024).
“Also recorded” adds a separate entry of the source. Where two headings read alike, the source gives them in different places.

Key:
[1] = target: human PD-L1 / human PD-1 interaction (Homo sapiens (Human), UniProt Q9NZQ7); assay: PD-1/PD-L1 binding ELISA
Procedure: 96 Well plates were coated with 1 μg/mL of human PD-L1 (obtained from R&D) in PBS overnight at 4° C. The wells were then blocked with 2% BSA in PBS (W/V) with 0.05% TWEEN-20 for 1 hour at 37° C. The plates were washed 3 times with PBS/0.05% TWEEN-20 and the compounds were serial diluted (1:5) in dilution medium and added to the ELISA plates. Human PD-1 and biotin 0.3 μg/mL (ACRO Biosystems) were added and incubated for 1 hour at 37° C. then washed 3 times with PBS/0.05% TWEEN-20. A second block was performed with 2% BSA in PBS (W/V)/0.05% TWEEN-20 for 10 min at 37° C. and the plates were washed 3 times with PBS/0.05% TWEEN-20. Streptavidin-HRP was added for 1 hour at 37° C. then the plates were washed 3 times with PBS/0.05% TWEEN-20. TMB substrate was added and reacted for 20 min at 37° C. A stop solution (2 N aqueous H2SO4) was added. The absorbance was read at 450 nm using a micro-plate spectrophotometer. The results are shown in Table 1: IC50 values are provided as follows: from 1000 to 10,000 nM (+); from 10 up to 1000 nM (++); less than 10 nM (+++).
ELISA: This assay was performed substantially as described in Biological Example 1.

PD-1/PD-L1 interaction = assay: PD-1/PD-L1 Blockade Cell-based Assay (NFAT luciferase reporter, CHO PD-L1 + Jurkat PD-1); conditions: Homo sapiens; CHO PD-L1 / Jurkat PD-1 co-culture; read-out: average EC50, NFAT promoter-driven luciferase expression
human T cells = assay: Mixed Lymphocyte Reaction (MLR), IFNgamma release; format: cell-based; conditions: for EC50: Homo sapiens, T-cell, T cells from different donors, read-out: EC50, release of INFgamma from human T cells
From the text: PBMCs Isolation: Peripheral blood mononuclear cells (PBMCs) were isolated from buffy coat from LRS chambers (leukoreduction systems) from healthy donors by density gradient centrifugation using StemCell SepMate™-50 tubes ([…] Technologies, Vancouver, CA) containing Ficoll-Paque Plus (Sigma Aldrich Inc., St. Louis, MO).
Generation of monocyte derived dendritic cells: CD14^+ monocytes were isolated from PBMCs by magnetic separation using human CD14^+ MicroBeads (MACS Miltenyi Biotech, Bergisch Gladbach, Germany) and an autoMACS® Pro Separator. Isolated monocytes were plated at a concentration of 1×10^6 cells/ml and differentiated to dendritic cells by adding GM-CSF (100 ng/ml) and IL-4 (50 ng/ml) for 6 days. Fresh media with cytokine supplement were added on day 0 and day 2. Mature dendritic cells were induced on day 6 by addition of IL-6 (2000 IU/ml), IL-1B (400 IU/ml) (Peprotech, Inc. Rocky Hill, NJ), TNFalpha (2000 IU/ml) and PGE2 (2 ug/ml) (Sigma Aldrich, Inc.) and cultured for 24 hours.
Preparation of human effector cells: CD4^+ T-Cells were isolated from PBMCs by magnetic separation using human CD4^+ MicroBeads (MACS Miltenyi Biotech) and an autoMACS® Pro Separator.
Mixed Lymphocyte Reaction (MLR): DC and CD4^+T-Cells from unmatched donors were cultured together in a ratio of 1:10 for 5 days in 96 well-flat bottom plates (Thermo Scientific). Test compounds were added as indicated at starting concentration of 1 μM with 1:4 dilutions with DMSO. PD-L1 antibody (AZ Medi4736 analog) and isotype control (Human IgG1, Kappa Isotype Control) (CrownBio, Beijing) were used as positive and negative control respectively. Supernatants were harvested after 5 days of incubation and detection of human IFNg was performed by ELISA using Human IFN-gamma DuoSet ELISA (R&D Systems, Minneapolis) as per manufacturer's instructions.

A375-eGFP cells = assay: In Vitro Immunotherapy Potency Assay (PBMC-mediated tumor cell killing); format: cell-based; conditions: in the presence of pre-stimulated primary human PBMCs
Procedure: In Vitro Immunotherapy Potency Assay: A375-eGFP-Puro Cells (ATCC) were grown in complete medium (DMEM+10% FBS+P/S 1×) containing lug/ml of puromycin. Human peripheral blood mononuclear cells (hPBMCs) were isolated from buffy coat from LRS chambers (leukoreduction systems) from healthy donors by density gradient centrifugation using StemCell SepMate™-50 tubes ([…] Technologies, Vancouver, CA) containing Ficoll-Paque Plus (Sigma Aldrich Inc., St. Louis, MO). […] Cells were washed twice and re-suspended into regular growth media. 3×10^4 A375-eGFP-Puro cells were seeded in 96-well clear bottom black TC treated plates in a final volume of 100 ul (Corning). Test compounds or anti-human PD-L1 antibody (AZ Medi4736 analog, CrownBio, Beijing) were added to the wells at different concentrations. SEB stimulated hPBMCs were added to the wells at a ratio of E:T (Effector cell: Target Cell) of […]. Mixed cells were incubated for 96 to 120 hours at 37° C. in 5% CO2. Medium was carefully aspired and 100 μl of PBS 1× was added to each well. Fluorescence from A375-eGFP cells was detected using FlexStation 3 plate reader.

PD-L1 [2] = target: T1, PD-L1 (Homo sapiens (Human), UniProt Q9NZQ7); assay: PathHunter PD-L1 Dimerization Assay in U2OS cells; format: cell-based
Procedure: Dimerization Assay PD-L1 protein dimerization was assessed in vitro by chemiluminescent detection using PathHunter® Dimerization assay (DiscoverX, Fremont, CA). The Assay was performed following vendor's protocol. 2×10^4 U2OS cells were plated in 96-well white bottom TC treated plates (Costar, San Jose, CA) in a final volume of 100 ul. ChemoCentryx compounds or anti-human PD-L1 antibody (AZ Medi4736 analog, CrownBio, Beijing) were added to experimental cells at different concentrations and incubated for 16 hours at 37° C. in 5% CO2. 110 ul of PathHunter Flash detection reagent (DiscoverX) was added to each well and incubated for 1 hour at room temperature in the dark. Chemiluminescent signal was measured on a FlexStation 3 plate reader (Molecular Devices, San Jose, CA) at a speed of 100 ms/well.
Target sequence in this assay (Q9NZQ7 19-290): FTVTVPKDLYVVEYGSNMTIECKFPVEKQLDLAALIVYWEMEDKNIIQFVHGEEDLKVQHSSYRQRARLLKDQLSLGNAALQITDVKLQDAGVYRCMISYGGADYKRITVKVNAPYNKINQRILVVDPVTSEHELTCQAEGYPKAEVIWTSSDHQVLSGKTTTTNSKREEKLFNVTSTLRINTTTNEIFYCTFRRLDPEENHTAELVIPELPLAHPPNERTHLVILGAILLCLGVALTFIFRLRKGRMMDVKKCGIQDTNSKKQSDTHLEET
Target sequence in this assay (Q9NZQ7 19-290): as above

PD-L1 [3] = target: T1, PD-L1; assay: PD-L1 Internalization Assay (surface PD-L1 by flow cytometry); format: cell-based; conditions: 37° C.
Procedure: Internalization Assay: MC38-hPD-L1 cells (GenOway S.A., France) and RKO cells (ATCC) growing at 37° C. in 5% CO2 were detached, resuspended in cold FACS buffer (PBS 1× with 10% FBS and 0.1% azide) and added to 96-well assay plates (V-Bottom) (Axygen, Union City, CA) at a concentration of 10×10^4 cells/well. ChemoCentryx compounds or anti-human PD-L1 antibody (AZ Medi4736 analog) were added to the wells at different concentrations and incubated for 2 hours at 37° C. or 4° C. Cells were washed twice with iced cold FACS buffer and stained with recombinant rabbit monoclonal anti human PD-L1 antibody ([28-8] (PE) (ab209962), Abcam) or recombinant rabbit monoclonal IgG Isotype control ([EPR25A] (PE) (ab209478), Abcam) for 30 minutes on ice. Cells were washed twice with FACS buffer before performing FACS analysis. Data were analyzed using FlowJo software.
Target sequence in this assay (Q9NZQ7 19-290): as above

MC38-hPD-L1 tumor = MC38-hPD-L1 tumor model in C57BL/6 mice; format: in vivo, mouse; conditions: for animals that achieved complete regression: 10 mice in each group, compounds 30 mg/kg orally b.i.d., antibody i.p. twice a week
Procedure: Generation and culture of MC38-hPD-L1 cells: The compounds are only known to cross-react with human PD-L1, therefore a syngeneic tumor model with […] MC-38 colon tumor cells expressing human PD-L1 (MC38-hPD-L1 tumor model) was used. The MC38-hPD-L1 cells were generated by GenOway. Endogenous mouse PD-L1 was first knocked out in MC38 cells using CRISPR technology, then human PDL1 was stably transfected in these mouse PD-L1 Knock-out MC38 cells. The MC38-hPD-L1 cells were cultured under standard conditions for MC38 cells (DMEM with 10% fetal bovine serum and Penicillin/Streptomycin) with G418 for maintaining transgene expression. 2 days prior to inoculation of these cells to mice, cells were trysinized and seeded without antibiotics.
(§1) In Vivo Studies: 8-week-old, female C57BL/6 mice were injected s.c. with 5×10^5 MC38-hPD-L1 cells in the right flank. 9 days after tumor inoculation mice were randomly assigned to treatment groups based on tumor size. Only mice that developed measurable tumors were enrolled in the studies. Anti-PD-L1 (Durvalumab) or isotype control was given i.p. twice a week at 100 ug per mouse per dose for 2 weeks. Compound 2.001 and Compound 2.002 suspended in 1% HPMC was dosed p.o. daily at indicated doses, dosing volume 100 μl per mouse. The vehicle, 1% HPMC, was dosed at the same volume with the same frequency for control animals.
Tumor volume was measured three times per week using a digital caliper and calculated as (width^2*length/2). Mice were sacrificed when tumor volumes reached 2,000 mm^3 in accordance with IACUC guidelines.
Tumor width (W) and length (L) were measured with calipers 3 times a week and the tumor volume was calculated using the formula V=(W (2)×L)/2. When tumors reach 2000 mm^3 mice were sacrificed and tumor excised for further analysis.

PD-L1 [4] = target: T1, PD-L1; assay: PD-L1 occupancy on cells isolated from MC38-hPD-L1 tumors (flow cytometry); format: in vivo, mouse; conditions: cells from treated MC38-hPD-L1 tumors
Procedure: (§2) Cellular phenotyping of tumor infiltrates: Excised tumors were finely chopped with a blade and meshed through 200 um sieve. Cells were then filtered through a […] sieve. Cells were washed and resuspended in FACS buffer (PBS 1× with 10% FBS and 0.1% azide).
(§3) Antibodies for flow cytometry were obtained from BioLegend (San Diego, CA). Flow cytometer panel included CD45 in FITC, PD-L1 in PE, CD8 in APC, CD4 in APC-Cy7. Flow cytometry data were acquired with a FACSCanto II (BD Biosciences, San Jose, CA) cytometer and analyzed using FlowJO v10.2 (FlowJo, Ashland, OR)
To examine the extent Compound 2.001 occupys PD-L1 on tumor cells, we utilized another PD-L1 detection antibody to stain the cells isolated from these tumors.
Target sequence in this assay (Q9NZQ7 19-290): as above

[5] = test system: tumor infiltrating CD8+ and CD4+ T cells; assay: Cellular phenotyping of tumor infiltrates in MC38-hPD-L1 tumor model; format: in vivo, mouse; conditions: MC38-hPD-L1 tumors
Procedure: as §2, §3

[6] = Plasma compound concentration in MC38-hPD-L1 tumor model; format: in vivo, mouse; conditions: trough after 3 days of dosing, oral
Procedure: as §1

[7] = PD-1/PD-L1 ELISA, class symbols, read-out: ELISA IC50
[8] = average from multiple assays, read-out: average IC50, inhibition of direct interaction of PD-L1 to PD-1

Sequence of human PD-L1 / human PD-1 interaction (Q9NZQ7 19-239): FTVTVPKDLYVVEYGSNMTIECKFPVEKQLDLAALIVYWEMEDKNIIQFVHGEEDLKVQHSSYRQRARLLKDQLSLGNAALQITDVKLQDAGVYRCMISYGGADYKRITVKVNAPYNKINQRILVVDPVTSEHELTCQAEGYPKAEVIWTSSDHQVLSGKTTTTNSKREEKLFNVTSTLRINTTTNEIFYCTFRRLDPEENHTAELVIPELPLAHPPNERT

Row | Compound | IC50 [1, 7] [nM] | IC50 [1, 8] [nM] | EC50 (PD-1/PD-L1 interaction) [nM] | release of INFgamma from human T cells (human T cells) | EC50 (human T cells) [nM] | killing of GFP labeled human cancer cell line A375 (A375-eGFP cells) | PD-L1 dimerization signal (PD-L1 [2]) | surface PD-L1 levels (PD-L1 [3]) | animals that achieved complete regression (MC38-hPD-L1 tumor) [animals] | PD-L1 occupancy on tumor cells (PD-L1 [4]) | tumor infiltrating CD8+ and CD4+ T cells [5] | mice with complete eradication of the tumors (MC38-hPD-L1 tumor; 30 mg/kg (b.i.d.), orally) | tumor growth (MC38-hPD-L1 tumor; dosed orally, several doses) | plasma compound concentrations [6] | PD-L1 dimerization signal (PD-L1 [2]; listed as anti-PD-L1 antibody)
1 | COc1nc(-c2cccc(-c3cccc(NC(=O)c4cn(C)c(=O)n(C)c4=O)c3C)c2Cl)ccc1CNC[C@@H]1CCC(=O)N1 [Compound 2.001] | < 10 | 0.3 | 52 | dose dependently increase | < 100 | promote killing | strongly induced the dimerization signal; also recorded: induce PD-L1 dimerization | profoundly reduces surface PD-L1 levels; also recorded: lower the surface PD-L1 levels | 4 | near complete PD-L1 occupancy | increased | – | – | – | –
2 | COc1nc(-c2cccc(-c3cccc(NC(=O)c4cn(C)c(=O)n(C)c4=O)c3Cl)c2Cl)ccc1CNC[C@@H]1CCC(=O)N1 [Compound 2.002] | < 10 | 0.4 | 46 | dose dependently increase | < 100 | promote killing | strongly induced the dimerization signal; also recorded: induce PD-L1 dimerization | profoundly reduces surface PD-L1 levels; also recorded: lower the surface PD-L1 levels | – | – | – | Eight of the ten | dose dependently suppresses tumor growth; also recorded: tumor growth suppression in a dose-dependent manner | dose-dependency | –
3 | COc1nc(-c2cccc(-c3cccc(NC(=O)c4cn(C)c(=O)n(C)c4=O)c3C)c2Cl)ccc1CN[C@@H]1CCOC[C@@H]1O [Compound 2.003] | < 10 | – | – | – | – | – | – | – | – | – | – | – | – | – | –
4 | Durvalumab [reference compound] | – | – | – | – | – | – | – | no effect | 6 | – | – | – | – | – | do not induce such signal
